Assay results: US4585795A, “Control agent for protecting timber against fungi employing a mixture of an organic carboxylic acid salt and quaternary ammonium salt” (priority 1982, dated 1986)
In brackets after ≈: the same amount, converted by molar mass. Several values for one entry are separate records, joined by “and”; a condition that tells them apart may be missing. Equal entries are not always repeated. Entries after “also recorded” stand apart in the source; their conditions may differ. Structures can show the parent of a compound that is named as a salt. Where two headings read alike, the source gives them in different places.

Assays:
Aureobasidium pullulans = assay: dish cultures, growth inhibition of A. pullulans (Czapek-Dox agar); type: cell-based; settings: 360 h
Protocol: Laboratory experiments were carried out by making (1) dish cultures with Czapek-Dox agar at a temperature of 23° C. and (2) mini-board tests at a temperature of 23° C. and a humidity of 100%. The dish cultures had been inoculated with spores of the fungus Aureobasidium pullulans. This is a known fungus causing sapstain. In the mini-board tests, the inoculation was carried out using a spore suspension which contained a mixture of the spores of sapstain fungi. The sapstain fungi used were Aureobasidium pullulans, Sclerophoma entoxylina and Ceratocystis pilifera. […]
In dish cultures with A. pullulans fungus it was observed that growth was inhibited at, for example, the following concentrations of the control agents studied within a culture period of 15 days:
Using certain mixtures of these control agents, fungus growth could be inhibited at the following concentrations, for example: […]

[1] = known organic acids used as control agents; cited from earlier work
[2] = test system: sapstain fungi (Aureobasidium pullulans, Sclerophoma entoxylina, Ceratocystis pilifera); assay: mini-board test on timber, sapstain; settings: for Grading points, Sapstain: Example 2, 1.2% active ingredient in wetting solution, pH 8.4, fresh timber, 23° C., 1 month, 0-5 very good, 6-10 average, 11-15 poor, 16-20 very poor; for synergism with Na-2-ethylhexanoate (in words): examples 2, 5, 6 and 12
Protocol: (§1) Laboratory experiments were carried out by making (1) dish cultures with Czapek-Dox agar at a temperature of 23° C. and (2) mini-board tests at a temperature of 23° C. and a humidity of 100%. The dish cultures had been inoculated with spores of the fungus Aureobasidium pullulans. This is a known fungus causing sapstain. In the mini-board tests, the inoculation was carried out using a spore suspension which contained a mixture of the spores of sapstain fungi. The sapstain fungi used were Aureobasidium pullulans, Sclerophoma entoxylina and Ceratocystis pilifera.
(§2) In the mini-board tests it was studied whether the toxic effect is retained on the surface of timber. The dimensions of the mini-boards were 10×50×300 mm. They had been made from newly felled pine. The pieces were immersed for 20 s into the solutions studied and were then weighed and inoculated. The control pieces were immersed into pure water. Some of the test pieces were dried for 1 month at 23° C. at a humidity of 100% in dishes covered with a plastic sheet, whereafter the sapstain and the mildew growth in them were assessed visually.
(§3) The control agent composition presented in Test 4 of Example 3 was modified in such a way that part of the dodecylbenzyldimethylammonium chloride was replaced with technical dialkyldimethylammonium chloride which contained, bound with nitrogen, C8 -C18 alkyl groups as follows: […], C10 -9%, C12 -47%, C14 -18%, C16 -8% and C18 -10%.

surface mildew = assay: mini-board test on timber, surface mildew; settings: Example 2; 1.2% active ingredient in wetting solution, pH 8.4, fresh timber, 23° C., 1 month; 0-5 very good, 6-10 average, 11-15 poor, 16-20 very poor
Protocol: as §1, §2, §3

[3] = test system: sapstain fungi (Aureobasidium pullulans, Sclerophoma entoxylina, Ceratocystis pilifera); assay: mini-board one-side immersion test, sapstain (DDC / 2-EHA-Na); settings: 3 weeks, 23° C.
Protocol: as §1
[…] The immersion period was 20 s. The boards were allowed to drip, and they were inoculated with the above-mentioned spore suspension of sapstain fungi.

[4] = test system: mildew fungi (Cladosporium sphaerospermum, Penicillum Sp., Aspergillus amstelodami); assay: mini-board one-side immersion test, mildew growth (DDC / 2-EHA-Na); settings: Example 6; dry matter of wetting solution 1.5%
Protocol: The concentration of the solution was 2.5%. The immersion period was 20 s. The boards were allowed to drip, and they were inoculated with the above-mentioned spore suspension of sapstain fungi.
The following experiment was carried out as in Example 5, but a suspension of spores of the mildew fungi listed below was used for the inoculations:
(§4) Cladosporium sphaerospermum

sapstain fungi [5] = assay: miniboard test, sapstain (Examples 8-12); settings: for Growth of fungi, Sapstain (score): Example 12, pH 10
Protocol: as §1
(§5) The other half of the miniboards was dipped into the control agent solutions for 20 seconds. […] The pH was 8.5-10.0. The board were allowed to drip and they were inoculated with the above mentioned spore suspensions of sapstain and mold fungi. The boards were stored at 100% relative humidity (R.H.) at 20° C. They were inspected and visually rated after 3 weeks incubation time.
(§6) 1--some traces of fungal growth
(§7) 2--several colonies of growing fungi
(§8) 3--25% of the surface discoloured
(§9) 4--50% of the surface discoloured
(§10) The miniboards were inspected and rated after 3 weeks incubation time at 20° C. and 100% R.H. Results are presented in tables 3 and 4 as the average score of ten replicate samples.
(§11) Results are presented in tables 5-7 as the average score of ten replicate samples.
(§12) The miniboards were treated as in foregoing examples but the treatment solution contained dioctyldimethylammonium chloride instead of trimethylcocoammonium chloride.

mold fungi [6] = assay: miniboard test, molds (surface mildew) (Examples 8-12); settings: for Growth of fungi, Molds (score): Example 12, pH 10; for synergism with trimethylcoco ammonium chloride (in words): mold tests, Examples 8-11; for Growth of fungi, Freshly cut pine sapwood, Molds (score): average of ten replicates
Protocol: as §4, §5, §6, §7, §8, §9, §10, §11, §12

sapstain fungi [7] = assay: miniboard test, sapstain (Examples 8-12); settings: TABLE 2; […] active ingredients, pH 8.5-10.0, 5 weeks, 20° C., 100% R.H.; average of ten replicates
mold fungi [8] = assay: miniboard test, molds (surface mildew) (Examples 8-12); settings: TABLE 2; […] active ingredients, pH 8.5-10.0, 5 weeks, 20° C., 100% R.H.; average of ten replicates
[9] = pH 2.5, read-out: concentration at which growth was inhibited
[10] = pH 5, read-out: concentration at which growth was inhibited
[11] = pH 7, read-out: concentration at which growth was inhibited
[12] = pH 2.5, 15 days culture, single agents, read-out: concentration at which growth was inhibited
[13] = pH 5.0, 15 days culture, single agents, read-out: concentration at which growth was inhibited
[14] = pH 7.0, 15 days culture, single agents, read-out: concentration at which growth was inhibited
[15] = Example 5, Test 1, dry matter of wetting solution 1.5%
[16] = Example 5, Test 2, dry matter of wetting solution […]
[17] = TABLE 1, […] active ingredients, pH 8.5-10, 3 weeks, brackets not explained
[18] = TABLES 5-7, […] active ingredients, pH 8.5-10.0, rated as in examples 9-10, average of ten replicates
[19] = TABLES 5-7, […] active ingredients, pH 8.5-10.0, rated as in examples 9-10
[20] = TABLES 3-4, […] active ingredients, pH 8.5-10.0, 3 weeks, 20° C., 100% R.H., average of ten replicates
[21] = TABLES 3-4, […] active ingredients, pH 8.5-10.0, 3 weeks, 20° C., 100% R.H.

## CCCCC(CC)C(=O)O (stereo not shown) [2-ethyl hexanoic acid]
Aureobasidium pullulans; [9]
  MIC: 50 µg/mL (≈ 347 µM)
Aureobasidium pullulans; [10]
  MIC: > 100 µg/mL
Aureobasidium pullulans; [11]
  MIC: > 1000 µg/mL
[1]
  pKa: 4.81

## CC(=O)Oc1ccccc1C(=O)O [Acetylsalicylic acid]
Aureobasidium pullulans; [9]
  MIC: 25 µg/mL (≈ 139 µM)
Aureobasidium pullulans; [10]
  MIC: > 100 µg/mL
Aureobasidium pullulans; [11]
  MIC: > 1000 µg/mL

## CCCCCCCCCCCC[N+](C)(C)Cc1ccccc1.[Cl-] [BAC, dodecylbenzyldimethylammonium chloride]
Aureobasidium pullulans; [9]
  MIC: 50 µg/mL
Aureobasidium pullulans; [10]
  MIC: 10 µg/mL
Aureobasidium pullulans; [11]
  MIC: 2 µg/mL
[2]
  Grading points, Sapstain: 2 points and 1.5 points
  synergism with Na-2-ethylhexanoate (in words): proved
Surface mildew
  Grading points, Surface mildew: 8.5 points and 4.5 points

## O=C(O)c1ccccc1 [Benzoic acid]
Aureobasidium pullulans; [9]
  MIC: 50 µg/mL (≈ 409 µM)
Aureobasidium pullulans; [10]
  MIC: > 100 µg/mL
Aureobasidium pullulans; [11]
  MIC: > 100 µg/mL

## CCCCCCCCCC(=O)O [Capric acid]
Aureobasidium pullulans; [12]
  MIC: 50 µg/mL (≈ 290 µM)
Aureobasidium pullulans; [13]
  MIC: 100 µg/mL (≈ 580 µM)
Aureobasidium pullulans; [14]
  MIC: > 100 µg/mL
[2]
  Grading points, Sapstain: 3.5 points
Surface mildew
  Grading points, Surface mildew: 14 points

## CCCCCC(=O)O [Capronic acid]
[1]
  pKa: 4.83

## CCCCCCCCCC[N+](C)(C)CCCCCCCCCC.[Cl-] [DDC, didecyldimethylammonium chloride]
[2]
  synergism with Na-2-ethylhexanoate (in words): proved
[3]; [15]
  Grade points, Sapstain, Treated side: 12 points
[3]; [16]
  Grade points, Sapstain, Treated side: 5 points
[4]
  Grade points, Mildew growth, Treated side: 11 points

## CCCCCCCCCCCC[N+](C)(C)C.[Cl-] [DMC, dodecyltrimethylammonium chloride]
Aureobasidium pullulans; [9]
  MIC: 15 µg/mL
Aureobasidium pullulans; [10]
  MIC: 15 µg/mL
Aureobasidium pullulans; [11]
  MIC: 4 µg/mL
[2]
  Grading points, Sapstain: 1 points

## CCCCCCCCCCCC[n+]1ccccc1 [DPC, dodecylpyridinium chloride]
[2]
  Grading points, Sapstain: 3 points
Surface mildew
  Grading points, Surface mildew: 16 points

## CCCCCCCC[N+](C)(C)CCCCCCCC.[Cl-] [Dioctyldimethylammonium chloride, dioctyldimethylammonium chloride]
[2]
  synergism with Na-2-ethylhexanoate (in words): proved
Sapstain fungi [5]; […] active ingredients
  Growth of fungi, Sapstain (score): 1
Mold fungi [6]; […] active ingredients
  Growth of fungi, Molds (score): 1.5

## CCCCC(CC)C(=O)O (stereo not shown) [Na--2-ethylhexanoate, Na salt of 2-ethyl hexanoic acid]
[3]; [15]
  Grade points, Sapstain, Treated side: 20 points
[3]; [16]
  Grade points, Sapstain, Treated side: 16 points
[4]
  Grade points, Mildew growth, Treated side: 20 points
Sapstain fungi [5]; […] active ingredients
  Growth of fungi, Sapstain (score): 10
Sapstain fungi [5]; TABLE 1, […] active ingredients, pH 8.5-10, 3 weeks, 20° C., 100% R.H., average of 5 replicates, value without brackets
  Growth of fungi, Freshly cut pine sapwood, Sapstain (score): 20
Sapstain fungi [5]; [17]
  Growth of fungi, Freshly cut pine sapwood, Sapstain (score), value in square brackets: 2
Sapstain fungi [5]; […] a.i. solution
  control of sapstain (in words): quite ineffective in controlling mold and stain fungi
Mold fungi [6]; […] active ingredients
  Growth of fungi, Molds (score): 10
Mold fungi [6]; [17]
  Growth of fungi, Freshly cut pine sapwood, Molds (surface mildew) (score), value in square brackets: 2
Mold fungi [6]; […] a.i. solution
  control of mold growth (in words): quite ineffective in controlling mold and stain fungi
Mold fungi [6]
  synergism with trimethylcoco ammonium chloride (in words): most obvious
Sapstain fungi [7]
  Growth of fungi, Freshly cut pine sapwood, Sapstain (score): 20
Mold fungi [8]
  Growth of fungi, Freshly cut pine sapwood, Molds (surface mildew) (score): 20

## CCCCCCCCCC(=O)O [Na-caprinoate]
Sapstain fungi [5]; [18]
  Growth of fungi, Freshly cut pine sapwood, Sapstain (score): 2.5
Mold fungi [6]; [19]
  Growth of fungi, Freshly cut pine sapwood, Molds (score): 20

## CCCCCCCC(=O)O [Na-caprylate]
Sapstain fungi [5]; [18]
  Growth of fungi, Freshly cut pine sapwood, Sapstain (score): 10.5
Mold fungi [6]; [19]
  Growth of fungi, Freshly cut pine sapwood, Molds (score): 20

## CCCCCCC(=O)O [Na-heptanoate]
Sapstain fungi [5]; [18]
  Growth of fungi, Freshly cut pine sapwood, Sapstain (score): 7
Mold fungi [6]; [19]
  Growth of fungi, Freshly cut pine sapwood, Molds (score): 20

## C/C=C/C=C/C(=O)O [Sorbic acid]
Aureobasidium pullulans; [12]
  MIC: 50 µg/mL (≈ 446 µM)
Aureobasidium pullulans; [13]
  MIC: 100 µg/mL (≈ 892 µM)
Aureobasidium pullulans; [14]
  MIC: > 100 µg/mL
[1]
  pKa: 4.77

## Na-iso-octanoate
Sapstain fungi [5]; [20]
  Growth of fungi, Freshly cut pine sapwood, Sapstain (score): 20
Mold fungi [6]; [21]
  Growth of fungi, Freshly cut pine sapwood, Molds (score): 20
Mold fungi [6]
  synergism with trimethylcoco ammonium chloride (in words): not as clear

## Na-isononanoate
Sapstain fungi [5]; [20]
  Growth of fungi, Freshly cut pine sapwood, Sapstain (score): 20
Mold fungi [6]; [21]
  Growth of fungi, Freshly cut pine sapwood, Molds (score): 20
Mold fungi [6]
  synergism with trimethylcoco ammonium chloride (in words): quite obvious; also recorded: most obvious
